DC50 data for 15 compounds are collected here from patent US20240158418A1 (C4 Therapeutics, Inc., priority 2021, published 2024).

Bounds are passed on as bounds.

In the first experiment the target is T1, EGFR L858R-T790M (Homo sapiens, UniProt P00533, L858R/T790M).
T1 construct: NCI-H1975 (harboring EGFR heterozygous L858R-T790M mutations); host or cells: NCI-H1975
T1 sequence (P00533 25-1210 T790M/L858R): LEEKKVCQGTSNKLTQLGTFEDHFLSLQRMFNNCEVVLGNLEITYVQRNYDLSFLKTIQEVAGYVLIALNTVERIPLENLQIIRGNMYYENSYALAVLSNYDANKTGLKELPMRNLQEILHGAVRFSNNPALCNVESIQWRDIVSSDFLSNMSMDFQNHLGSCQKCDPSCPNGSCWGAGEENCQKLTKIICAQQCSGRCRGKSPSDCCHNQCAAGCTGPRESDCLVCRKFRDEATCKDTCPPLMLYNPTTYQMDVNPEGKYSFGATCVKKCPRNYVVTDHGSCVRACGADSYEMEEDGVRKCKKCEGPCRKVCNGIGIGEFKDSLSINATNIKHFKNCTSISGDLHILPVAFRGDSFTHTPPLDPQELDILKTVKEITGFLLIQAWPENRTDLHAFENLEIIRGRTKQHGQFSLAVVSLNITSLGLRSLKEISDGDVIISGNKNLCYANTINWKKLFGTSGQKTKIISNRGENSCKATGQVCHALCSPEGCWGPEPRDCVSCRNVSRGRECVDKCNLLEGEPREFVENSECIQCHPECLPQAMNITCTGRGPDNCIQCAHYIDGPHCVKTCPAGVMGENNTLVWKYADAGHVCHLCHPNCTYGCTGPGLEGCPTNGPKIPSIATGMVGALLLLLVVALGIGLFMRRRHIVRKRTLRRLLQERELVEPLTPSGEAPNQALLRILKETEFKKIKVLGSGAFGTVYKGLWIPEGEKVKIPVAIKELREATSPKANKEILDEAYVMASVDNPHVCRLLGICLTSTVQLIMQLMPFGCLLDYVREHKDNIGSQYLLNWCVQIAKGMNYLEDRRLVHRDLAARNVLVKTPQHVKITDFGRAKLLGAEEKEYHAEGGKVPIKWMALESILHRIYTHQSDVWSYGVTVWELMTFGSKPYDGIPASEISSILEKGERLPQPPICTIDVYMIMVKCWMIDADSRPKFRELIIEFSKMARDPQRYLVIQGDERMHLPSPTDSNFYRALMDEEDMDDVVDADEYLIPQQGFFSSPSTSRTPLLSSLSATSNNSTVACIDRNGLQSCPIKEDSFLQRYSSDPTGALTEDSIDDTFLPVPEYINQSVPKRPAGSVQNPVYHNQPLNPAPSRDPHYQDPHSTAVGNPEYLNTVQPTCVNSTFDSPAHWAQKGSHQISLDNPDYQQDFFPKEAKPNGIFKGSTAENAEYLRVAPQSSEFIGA
Kind of experiment: EGFR degradation, Total EGFR (L858R-specific) HTRF, NCI-H1975. It counts as cell-based. Conditions: Table 9A; NCI-H1975 cells, 6 hours, Total EGFR HTRF; read-out: H1975 EGFR DC50. The essentials: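 FRET signal from HTRF kits measured phospho-EGFR at pY1068 or total EGFR after 6 h treatment at 37 °C. Compounds ran as 11-point half-log dilutions from 10 μM in duplicate, in cells in phenol red-free RPMI with 10% FBS. Concentrations giving 50% inhibition or degradation were reported as IC50 or DC50.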
The term DC50 denotes the concentration giving 50% degradation. For `O=C1CC[C@@H](Nc2ccc(C3CCN(CC(=O)N4CCC(c5ccc(-c6cc(F)c7c(c6)C(=O)N(C(C(=O)Nc6nccs6)c6ncn8c6CCC8)C7)cc5)CC4)CC3)cc2)C(=O)N1` (stereo partly drawn) [Compound 23, 2-(6,7-dihydro-5H-pyrrolo[1,2-c]imidazol-1-yl)-2-(6-(4-(1-(2-(4-(4-(((R)-2,6-dioxopiperidin-3-yl)amino)phenyl)piperidin-1-yl)acetyl)piperidin-4-yl)phenyl)-4-fluoro-1-oxoisoindolin-2-yl)-N-(thiazol-2-yl)acetamide], the half-maximal degradation concentration (DC50) was less than 50 nM.
The same measure, in the same setting: then `O=C1CC[C@H](Nc2ccc(C3CCN(CC(=O)N4CC[C@@H](Oc5ccc(-c6cc(F)c7c(c6)C(=O)N(C(C(=O)Nc6nccs6)c6ncn8c6CCC8)C7)cc5)C4)CC3)cc2)C(=O)N1` (stereo partly drawn) [Compound 41, 2-(6,7-dihydro-5H-pyrrolo[1,2-c]imidazol-1-yl)-2-[6-[4-[(3R)-1-[2-[4-[4-[[(3S)-2,6-dioxo-3-piperidyl]amino]phenyl]-1-piperidyl]acetyl]pyrrolidin-3-yl]oxyphenyl]-4-fluoro-1-oxo-isoindolin-2-yl]-N-thiazol-2-yl-acetamide], with less than 50 nM.
Still for that read-out and setting: then `O=C1CCC(Nc2ccc(C3CCN(CC(=O)N4CCN(c5ccc(-c6cc(F)c7cn(C(C(=O)Nc8nccs8)c8ncn9c8CCC9)nc7c6)cn5)CC4)CC3)c(F)c2)C(=O)N1` (stereo not drawn) [Compound 64, 2-(6,7-dihydro-5H-pyrrolo[1,2-c]imidazol-1-yl)-2-[6-[6-[4-[2-[4-[4-[(2,6-dioxo-3-piperidyl)amino]-2-fluoro-phenyl]-1-piperidyl]acetyl]piperazin-1-yl]-3-pyridyl]-4-fluoro-indazol-2-yl]-N-thiazol-2-yl-acetamide], with 50 to 150 nM; and `O=C1CC[C@H](Nc2ccc(C3CCN(CC(=O)N4CCC(Oc5ccc(-c6cc(F)c7c(c6)C(=O)N(C(C(=O)Nc6nccs6)c6ncn8c6CCC8)C7)cc5)CC4)CC3)c(F)c2)C(=O)N1` (stereo partly drawn) [Compound 39, 2-(6,7-dihydro-5H-pyrrolo[1,2-c]imidazol-1-yl)-2-(6-(4-((1-(2-(4-(4-(((S)-2,6-dioxopiperidin-3-yl)amino)-2-fluorophenyl)piperidin-1-yl)acetyl)piperidin-4-yl)oxy)phenyl)-4-fluoro-1-oxoisoindolin-2-yl)-N-(thiazol-2-yl)acetamide], with 50 to 150 nM; and `O=C1CCC(Nc2ccc(C3CCN(C(=O)CN4CCC(c5ccc(-c6cc(F)c7c(c6)C(=O)N(C(C(=O)Nc6nccs6)c6ncn8c6CCC8)C7)cc5)CC4)CC3)cc2)C(=O)N1` (stereo not drawn) [Compound 26, 2-(6,7-dihydro-5H-pyrrolo[1,2-c]imidazol-1-yl)-2-[6-[4-[1-[2-[4-[4-[(2,6-dioxo-3-piperidyl)amino]phenyl]-1-piperidyl]-2-oxo-ethyl]-4-piperidyl]phenyl]-4-fluoro-1-oxo-isoindolin-2-yl]-N-thiazol-2-yl-acetamide], with less than 50 nM.

Still in this experiment, the particulars now being: Table 9B; NCI-H1975 cells, 6 hours, Total EGFR HTRF; read-out: H1975 EGFR DC50.
Consider `O=C1CC[C@H](Nc2ccc(N3CCC(O)(CC(=O)N4CC5(C4)CN(c4ccc(-c6cc(Cl)c7c(c6)C(=O)N(C(C(=O)Nc6nccs6)c6ncn8c6CCC8)C7)cc4)C5)CC3)c(F)c2)C(=O)N1` (stereo partly drawn) [Compound 136, 2-[4-chloro-6-[4-[2-[2-[1-[4-[[(3S)-2,6-dioxo-3-piperidyl]amino]-2-fluoro-phenyl]-4-hydroxy-4-piperidyl]acetyl]-2,6-diazaspiro[3.3]heptan-6-yl]phenyl]-1-oxo-isoindolin-2-yl]-2-(6,7-dihydro-5H-pyrrolo[1,2-c]imidazol-1-yl)-N-thiazol-2-yl-acetamide], for which the DC50 was less than 50 nM.
Still for that read-out and setting: then `O=C1CC[C@@H](Nc2ccc(N3CCC(O)(CC(=O)N4CC5(C4)CN(c4ccc(-c6cc(F)c7c(c6)C(=O)N(C(C(=O)Nc6nccs6)c6ncn8c6C[C@@H](F)C8)C7)cc4)C5)CC3)c(F)c2)C(=O)N1` (stereo partly drawn) [Compound 132, 2-[6-[4-[2-[2-[1-[4-[[(3R)-2,6-dioxo-3-piperidyl]amino]-2-fluoro-phenyl]-4-hydroxy-4-piperidyl]acetyl]-2,6-diazaspiro[3.3]heptan-6-yl]phenyl]-4-fluoro-1-oxo-isoindolin-2-yl]-2-[(6R)-6-fluoro-6,7-dihydro-5H-pyrrolo[1,2-c]imidazol-1-yl]-N-thiazol-2-yl-acetamide], with less than 50 nM; and `O=C1CC[C@H](Nc2ccc(N3CCC(O)(CC(=O)N4CC5(C4)CN(c4ccc(-c6cc(F)c7cn(C(C(=O)Nc8nccs8)c8ncn9c8CCC9)nc7c6)cc4)C5)CC3)c(F)c2)C(=O)N1` (stereo partly drawn) [Compound 77, 2-(6,7-dihydro-5H-pyrrolo[1,2-c]imidazol-1-yl)-2-[6-[4-[2-[2-[1-[4-[[(3S)-2,6-dioxo-3-piperidyl]amino]-2-fluoro-phenyl]-4-hydroxy-4-piperidyl]acetyl]-2,6-diazaspiro[3.3]heptan-6-yl]phenyl]-4-fluoro-indazol-2-yl]-N-thiazol-2-yl-acetamide], with less than 50 nM.
Still for that read-out and setting: then `O=C1CCC(Nc2ccc(N3CCC(O)(CC(=O)N4CC5(C4)CN(c4ccc(-c6ccc7cn(C(C(=O)Nc8nccs8)c8ncn9c8CCC9)nc7c6F)cn4)C5)CC3)cc2F)C(=O)N1` (stereo not drawn) [Compound 71, 2-(6,7-dihydro-5H-pyrrolo[1,2-c]imidazol-1-yl)-2-[6-[6-[2-[2-[1-[4-[(2,6-dioxo-3-piperidyl)amino]-3-fluoro-phenyl]-4-hydroxy-4-piperidyl]acetyl]-2,6-diazaspiro[3.3]heptan-6-yl]-3-pyridyl]-7-fluoro-indazol-2-yl]-N-thiazol-2-yl-acetamide], with less than 50 nM.
Same read-out and setting: then `Cn1nc(N2CCC(=O)NC2=O)c2cc(F)c(N3CCC(O)(CC(=O)N4CC5(C4)CN(c4ccc(-c6cc(F)c7c(c6)C(=O)N(C(C(=O)Nc6nccs6)c6ncn8c6CCC8)C7)cc4)C5)CC3)cc21` (stereo not drawn) [Compound 127, 2-(6,7-dihydro-5H-pyrrolo[1,2-c]imidazol-1-yl)-2-[6-[4-[2-[2-[1-[3-(2,4-dioxohexahydropyrimidin-1-yl)-5-fluoro-1-methyl-indazol-6-yl]-4-hydroxy-4-piperidyl]acetyl]-2,6-diazaspiro[3.3]heptan-6-yl]phenyl]-4-fluoro-1-oxo-isoindolin-2-yl]-N-thiazol-2-yl-acetamide], with less than 50 nM; and `Cn1nc(N2CCC(=O)NC2=O)c2ccc([C@@H]3CCN(C(=O)CN4CCC5(CC4)CN(c4ccc(-c6cc(F)c7c(c6)C(=O)N(C(C(=O)Nc6nccs6)c6ncn8c6CCC8)C7)cc4)C5)CC3(F)F)cc21` (stereo partly drawn) [Compound 141, 2-(6,7-dihydro-5H-pyrrolo[1,2-c]imidazol-1-yl)-2-[6-[4-[7-[2-[(4S)-4-[3-(2,4-dioxohexahydropyrimidin-1-yl)-1-methyl-indazol-6-yl]-3,3-difluoro-1-piperidyl]-2-oxo-ethyl]-2,7-diazaspiro[3.5]nonan-2-yl]phenyl]-4-fluoro-1-oxo-isoindolin-2-yl]-N-thiazol-2-yl-acetamide], with 50 to 150 nM.
Turning to `O=C1CCC(Nc2ccc(N3CCCC(O)(CC(=O)N4CC5(C4)CN(c4ccc(-c6cc(F)c7c(c6)C(=O)N(C(C(=O)Nc6nccs6)c6ncn8c6CCC8)C7)cc4)C5)CC3)c(F)c2)C(=O)N1` (single isomer, unassigned; isomer b1) [Compound 166, 2-(6,7-dihydro-5H-pyrrolo[1,2-c]imidazol-1-yl)-2-[6-[4-[2-[2-[1-[4-[[2,6-dioxo-3-piperidyl]amino]-2-fluoro-phenyl]-4-hydroxy-azepan-4-yl]acetyl]-2,6-diazaspiro[3.3]heptan-6-yl]phenyl]-4-fluoro-1-oxo-isoindolin-2-yl]-N-thiazol-2-yl-acetamide, isomer B1], the half-maximal degradation concentration (DC50) was in the range of 50 to 150 nM.
Same read-out and setting: then `O=C1CC[C@H](Nc2ccc(N3CCC(O)(CC(=O)N4CC5(C4)CN(c4ccc(-c6cc(F)c7c(c6)C(=O)N(C(C(=O)Nc6nccs6)c6ncn8c6C[C@@H](F)C8)C7)cc4)C5)CC3)c(F)c2)C(=O)N1` (stereo partly drawn) [Compound 131, 2-[6-[4-[2-[2-[1-[4-[[(3S)-2,6-dioxo-3-piperidyl]amino]-2-fluoro-phenyl]-4-hydroxy-4-piperidyl]acetyl]-2,6-diazaspiro[3.3]heptan-6-yl]phenyl]-4-fluoro-1-oxo-isoindolin-2-yl]-2-[(6R)-6-fluoro-6,7-dihydro-5H-pyrrolo[1,2-c]imidazol-1-yl]-N-thiazol-2-yl-acetamide], with less than 50 nM; and `O=C1CCC(Nc2cc(F)c(N3CCC(O)(CC(=O)N4CC5(C4)CN(c4ccc(-c6cc(F)c7c(c6)C(=O)N(C(C(=O)Nc6nccs6)c6ncn8c6CCC8)C7)cc4)C5)CC3)c(F)c2)C(=O)N1` (single isomer, unassigned; isomer 1) [Compound 119, 2-(6,7-dihydro-5H-pyrrolo[1,2-c]imidazol-1-yl)-2-(6-(4-(6-(2-(1-(4-((2,6-dioxopiperidin-3-yl)amino)-2,6-difluorophenyl)-4-hydroxypiperidin-4-yl)acetyl)-2,6-diazaspiro[3.3]heptan-2-yl)phenyl)-4-fluoro-1-oxoisoindolin-2-yl)-N-(thiazol-2-yl)acetamide, isomer 1], with less than 50 nM; and `O=C1CCN(c2ccc(N3CCC(O)(CC(=O)N4CC5(CCN(c6ccc(-c7cc(F)c8c(c7)C(=O)N(C(C(=O)Nc7nccs7)c7ncn9c7CCC9)C8)cc6)CC5)C4)CC3)c(Cl)c2)C(=O)N1` (stereo not drawn) [Compound 172, 2-[6-[4-[2-[2-[1-[2-chloro-4-(2,4-dioxohexahydropyrimidin-1-yl)phenyl]-4-hydroxy-4-piperidyl]acetyl]-2,7-diazaspiro[3.5]nonan-7-yl]phenyl]-4-fluoro-1-oxo-isoindolin-2-yl]-2-(6,7-dihydro-5H-pyrrolo[1,2-c]imidazol-1-yl)-N-thiazol-2-yl-acetamide], with less than 50 nM.
